Test results taken from patent publication US20170097335A1, “Methods for Diagnosing Impaired Absorption of Amino Acids, Monosaccharides and Fatty Acids” (The Texas A&M University System, priority 2015, published 2017).

Assays:
[1] = Conversion of D- into L-phenylalanine; assay type: in vivo; settings: observed in the pig
Source text: This allows for an estimation of the potential disturbance of the digestion and splanchnic extraction measurements that also involve L-phenylalanine stable isotopes.

[2] = Ratio of enterally to intravenously provided L-allo-isoleucine isotopologues in blood samples, pig model; assay type: in vivo
Description: (§1) Both human and animal models were used for measuring protein absorption in the intestinal walls. The subjects were prepared with indwelling catheters to enable blood sampling. Stable isotopes of amino acids are obtained and made into sterile and pyrogen-free solutions. These isotopes may comprise L-allo-[^2H10, ^15N]-isoleucine, L-allo-[^13C6]-isoleucine, D-1-[^13C]phenylalanine, D-C^3C6]phenylalanine, D-[^2H5]-phenylalanine, D-[2-^2H]phenylalanine. A blood sample is taken or drawn from each subject for a measurement of the natural background. A bolus or continuous infusion of the stable isotope of the amino acid may be used. The labeled amino acid is administered orally to each subject and another isotope of the amino acid nutrient is administered intravenously to the same subject at the same time or within 8 hours. Blood samples are taken or drawn from each subject in the time window of about one to several hours. The labeled amino acids enrichments in each sample are analyzed by Mass Spectrometry. Results from the Mass Spectrometry are applied to a non-compartmental model for analysis and ratio determination. The metabolic phenotype is produced based on the measured amino acids production, consumption and metabolism.

[3] = Protein absorption in the intestinal walls: ratio of orally to intravenously provided isotopologue in blood, healthy volunteers; assay type: in vivo, human; settings: FIG. 1
Description: as §1

N[C@H](Cc1ccccc1)C(=O)O [D-phenylalanine]
conversion rate of D- into L-phenylalanine [1]: 10%

[13CH3][13CH2][13C@@H]([13CH3])[13C@H](N)[13C](=O)O [L-allo-[^13C6]-isoleucine]
ratio of enterally administered over intravenously administered isotopologue ([2]; continuously fed pig (4 hours), over intravenously administered L-allo-[^2H10, ^15M-isoleucine, FIG. 4): about 0.8 | ratio of enterally administered over intravenously administered isotopologue ([2]; pigs with bolus feeding for 4 hours, over intravenously administered allo-Isoleucine[^2H10, ^15N](M9+M11), FIG. 5): about 0.8

CC[C@@H](C)[C@H](N)C(=O)O [L-allo-isoleucine]
absorption ratio of orally provided isotopologue over intravenously provided isotopologue [3]: about 0.8
